2 compounds from patent US20260001922A1, “PEPTIDES TARGETING SODIUM CHANNELS TO TREAT PAIN” (priority 2022, published 2026) can be followed below.

The test system of data set [1] is thermal nociception in naïve rats. Conditions: 1.6 μg i.t.
Data set [2] addresses hERG channel (Homo sapiens, UniProt Q12809). Briefly: in vitro.

The pIC50 is the negative decadic logarithm of the IC50, by convention in mol/L. The low end stands for a large IC50, the high end for a small IC50.

pIC50: −log10 of the molar value. Positions of bridges follow the written chain, without caps; N, C: chain ends. Residues, ends and D or L forms follow the SMILES beside them.

Chain of hERG channel (Q12809 whole entry): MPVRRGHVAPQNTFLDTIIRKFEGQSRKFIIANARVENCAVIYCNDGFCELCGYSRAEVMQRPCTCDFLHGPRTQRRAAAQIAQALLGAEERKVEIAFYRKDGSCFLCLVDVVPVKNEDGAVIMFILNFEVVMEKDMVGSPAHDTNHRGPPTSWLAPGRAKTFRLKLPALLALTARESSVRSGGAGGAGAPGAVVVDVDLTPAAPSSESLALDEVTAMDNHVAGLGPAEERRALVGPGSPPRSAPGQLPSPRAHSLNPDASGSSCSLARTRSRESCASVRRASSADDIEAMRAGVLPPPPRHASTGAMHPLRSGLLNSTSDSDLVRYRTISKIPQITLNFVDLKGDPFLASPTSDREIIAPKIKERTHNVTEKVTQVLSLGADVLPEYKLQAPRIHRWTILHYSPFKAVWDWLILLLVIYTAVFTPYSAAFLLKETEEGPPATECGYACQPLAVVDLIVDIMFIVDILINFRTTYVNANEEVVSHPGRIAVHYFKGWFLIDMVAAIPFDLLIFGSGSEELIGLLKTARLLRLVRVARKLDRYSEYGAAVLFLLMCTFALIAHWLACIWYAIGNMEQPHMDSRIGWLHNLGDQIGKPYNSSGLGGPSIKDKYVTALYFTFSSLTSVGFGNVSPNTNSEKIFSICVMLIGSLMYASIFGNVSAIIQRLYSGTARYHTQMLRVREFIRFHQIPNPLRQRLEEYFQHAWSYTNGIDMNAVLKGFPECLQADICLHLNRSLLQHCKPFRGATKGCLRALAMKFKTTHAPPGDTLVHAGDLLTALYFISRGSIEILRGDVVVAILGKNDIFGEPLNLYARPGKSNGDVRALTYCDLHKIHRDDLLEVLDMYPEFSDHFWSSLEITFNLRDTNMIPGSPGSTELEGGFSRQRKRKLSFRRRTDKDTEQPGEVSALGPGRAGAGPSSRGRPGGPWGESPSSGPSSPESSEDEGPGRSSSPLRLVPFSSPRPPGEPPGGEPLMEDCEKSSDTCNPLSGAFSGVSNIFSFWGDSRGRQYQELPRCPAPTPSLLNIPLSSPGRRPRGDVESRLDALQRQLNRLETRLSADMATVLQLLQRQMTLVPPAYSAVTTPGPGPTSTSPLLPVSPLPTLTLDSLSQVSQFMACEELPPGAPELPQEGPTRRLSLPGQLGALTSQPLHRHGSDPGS

Regarding `CSCC[C@@H]1NC(=O)[C@H](Cc2c[nH]c3ccccc23)NC(=O)[C@H](CCCCN)NC(=O)[C@H](CCC(N)=O)NC(=O)[C@@H](NC(=O)[C@@H](N)CCC(N)=O)CSSC[C@@H]2NC(=O)[C@@H]3CSSC[C@@H](C(=O)N[C@@H](CCCNC(=N)N)C(=O)N[C@@H](CCCCN)C(=O)N[C@@H](CCC(=O)O)C(=O)N[C@@H](CC(C)C)C(=O)N[C@@H](CC(C)C)C(N)=O)NC(=O)[C@H](Cc4c[nH]c5ccccc45)NC(=O)[C@H](CC(C)C)NC(=O)[C@H](CCCNC(=N)N)NC(=O)[C@H](CSSC[C@H](NC(=O)[C@H]([C@@H](C)O)NC(=O)[C@H](CCC(N)=O)NC1=O)C(=O)N[C@@H](CC(=O)O)C(=O)N[C@@H](CCCCN)C(=O)N[C@@H](CC(=O)O)C(=O)N[C@@H](CCCNC(=N)N)C(=O)N[C@@H](CCCCN)C(=O)N3)NC(=O)[C@H](CCCNC(=N)N)NC(=O)[C@H](Cc1ccccc1)NC(=O)CNC(=O)[C@H](CCC(=O)O)NC2=O` [PTx2-3127] (H-QCQKWMQTCDKDRKCCEGFRCRLWCRKELL-NH2; disulfide 2-16, 9-21, 15-25), the motor activity result in data set [1] is recorded as “did not lame or significantly alter motor activity”. `CSCC[C@@H]1NC(=O)[C@H](Cc2c[nH]c3ccccc23)NC(=O)[C@H](CCCCN)NC(=O)[C@H](CCC(N)=O)NC(=O)[C@@H](NC(=O)[C@@H](N)Cc2c[nH]cn2)CSSC[C@@H]2NC(=O)[C@@H]3CSSC[C@@H](C(=O)N[C@@H](CCCNC(=N)N)C(=O)N[C@@H](CCCCN)C(=O)N[C@@H](CCC(=O)O)C(=O)N[C@@H](CC(C)C)C(=O)N[C@@H](CC(C)C)C(N)=O)NC(=O)[C@H](Cc4c[nH]c5ccccc45)NC(=O)[C@H](CC(C)C)NC(=O)[C@H](CCCNC(=N)N)NC(=O)[C@H](CSSC[C@H](NC(=O)[C@H]([C@@H](C)O)NC(=O)[C@H](CCC(N)=O)NC1=O)C(=O)N[C@@H](CC(=O)O)C(=O)N[C@@H](CCCCN)C(=O)N[C@@H](CC(=O)O)C(=O)N[C@@H](CCCNC(=N)N)C(=O)N[C@@H](CCCCN)C(=O)N3)NC(=O)[C@H](CCCNC(=N)N)NC(=O)[C@H](Cc1ccccc1)NC(=O)CNC(=O)[C@H](CCC(=O)O)NC2=O` [PTx2-3258] gave a negative logarithm of the IC50 (pIC50) in data set [2] of 6.00.
